Results: patent US20060063792A1, “Substituted morphinans and methods of their use” (Adolor Corporation, priority 2004, published 2006)

What was measured:
μ opioid receptor [1] = target: T1, μ opioid receptor (Homo sapiens, UniProt P35372); assay: Inhibition of agonist (loperamide)-stimulated [35S]GTPγS binding to membranes with cloned human μ opioid receptor; assay type: biochemical
T1 construct: expressed in transfected cells
Protocol: The potencies of the antagonists were assessed by their abilities to inhibit agonist-stimulated [^35S]GTPγS binding to membranes containing the cloned human μ, κ, or δ opioid receptors. The agonists used were loperamide for the μ opioid receptor, U50488H for the κ opioid receptor, and BW373U86 for the δ opioid receptor.
To determine the IC50 value, which was the concentration to give half-maximal inhibition of agonist-stimulated [^35S]GTPγS binding, the amount of [^35S]GTPγS bound in the presence of a fixed concentration of agonist and various concentrations of antagonist was measured. The fixed concentration of agonist was the EC80 for the agonist, which was the concentration to give 80% of the relative maximum stimulation of […] binding. The IC50 value was determined from a best nonlinear regression fit of the data to the following equation, [formula] where Y is the amount of [^35S]GTPγS bound at each concentration of antagonist, Bottom is the calculated amount of [^35S]GTPγS bound in the presence of an infinite concentration of antagonist, Top is the calculated amount of [^35S]GTPγS bound in the absence of added antagonist, X is the logarithm of the concentration of antagonist, and LogIC50 is the logarithm of the concentration of antagonist where the amount of [^35S]GTPγS bound is halfway between Bottom and Top. The nonlinear regression fit was performed using GraphPad Prism® version 3.00 for Windows (GraphPad Software, San Diego, Calif.). Mouse Gastrointestinal Transit (GIT) Assay (in vivo Assay)

μ opioid receptor [2] = target: T1, μ opioid receptor; assay: [3H]diprenorphine receptor binding, cloned human μ opioid receptor
Protocol: The potencies of the compounds were determined by testing the ability of a range of concentrations of each compound to inhibit the binding of the non-selective opioid antagonist, [^3H]diprenorphine, to the cloned human μ, κ, and δ opioid receptors, expressed in separate cell lines. IC50 values were obtained by nonlinear analysis of the data using GraphPad Prism version 3.00 for Windows (GraphPad Software, San Diego). Ki values were obtained by Cheng-Prusoff corrections of IC50 values.
The receptor binding method (DeHaven and DeHaven-Hudkins, “Characterization of Opioid Receptors”, Current Protocols in Pharmacology (Eds. Enna S J and Williams M) 1.4.1-1.4.12, John Wiley & Sons, Inc., New York (1998)) was a modification of the method of Raynor, et al., Mol. Pharmacol. 45:330-334 (1994). After dilution in buffer A and homogenization as before, membrane proteins (10-80 μg) in 250 μL were added to mixtures containing test compound and [^3H]diprenorphine (0.5 to 1.0 nM, 40,000 to 50,000 dpm) in 250 μL of buffer A in 96-well deep-well polystyrene titer plates (Beckman). […] The filters were rinsed 4 times with 1 mL of cold 50 mM Tris HCl, pH 7.8 and radioactivity remaining on the filters determined by scintillation spectroscopy. Nonspecific binding was determined by the minimum values of the titration curves and was confirmed by separate assay wells containing 10 μM naloxone. Ki values were determined by Cheng-Prusoff corrections of IC50 values derived from nonlinear regression fits of 12 point titration curves using GraphPad Prism® version 3.00 for Windows (GraphPad Software, San Diego, Calif.).
To determine the equilibrium dissociation constant for the inhibitors (Ki), radioligand bound (cpm) in the presence of various concentrations of test compounds was measured. […] The Ki values were then determined from the […] values by the following equation, [formula] where [ligand] is the concentration of radioligand and Kd is the equilibrium dissociation constant for the radioligand.

T1 sequence (P35372 whole entry): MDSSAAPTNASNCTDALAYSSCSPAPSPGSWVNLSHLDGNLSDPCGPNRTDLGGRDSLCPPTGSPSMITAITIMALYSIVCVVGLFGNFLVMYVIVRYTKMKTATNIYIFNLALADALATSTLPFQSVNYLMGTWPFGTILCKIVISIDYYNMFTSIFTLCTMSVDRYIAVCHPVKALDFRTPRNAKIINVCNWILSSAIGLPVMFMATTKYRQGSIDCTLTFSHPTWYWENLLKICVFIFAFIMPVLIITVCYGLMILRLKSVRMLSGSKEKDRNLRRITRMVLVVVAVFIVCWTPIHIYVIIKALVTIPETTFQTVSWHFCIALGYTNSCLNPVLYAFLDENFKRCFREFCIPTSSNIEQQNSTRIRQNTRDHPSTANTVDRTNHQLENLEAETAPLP

| SMILES | IC50 (μ opioid receptor [1]) [nM] | Ki (μ opioid receptor [2]) [nM] |
| --- | --- | --- |
| O=C(O)CNC(=O)/C=C1/CC[C@@]2(O)[C@H]3Cc4ccc(O)c5c4[C@@]2(CCN3CC2CC2)[C@H]1O5 [Example 33, 4,5α-Epoxy-3,14β-dihydroxy-6,6Z(N-acryloylamino-acetic acid)-17-(cyclopropylmethyl)morphinan] | 21.3 | 3 |
| CC(=O)N[C@@]12CC[C@H](NCc3ccccc3)[C@@H]3Oc4c(O)ccc5c4[C@@]31CCN(CC1CC1)[C@@H]2C5 [Example 73, 4,5α-Epoxy-3-hydroxy-14β-acetylamino-6-α-benzylamino-17-(cyclopropylmethyl)morphinan] | 4.2 | 2.8 |
| O=C(O)CCCC(=O)N[C@@]12CCC(=O)[C@@H]3Oc4c(O)ccc5c4[C@@]31CCN(CC1CC1)[C@@H]2C5 [Example 85] | 1.1 | 4.1 |
